Test results: article PMC6979384, “Characterization of the plant homeodomain (PHD) reader family for their histone tail interactions” (Epigenetics & Chromatin, 2020)

Tests used:
Test in all cases: Histone peptide microarray
Format in all cases: binding, human
AIRE (PP) = details: GST-tagged AIRE (PP), sheet Array Heatmap, each array performed twice, total n = 4
How it was run: (§1)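 Binding read as mean relative signal from 4 replicates; microarray held 293 synthetic histone peptides with single or combinatorial PTMs. Each GST-tagged PHD reader was applied at 0.5 μM using the optimized Petell protocol.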

BAZ2B = details: GST-tagged BAZ2B, sheet Array Heatmap, each array performed twice, total n = 4
How it was run: as §1

BPTF (PB) = details: GST-tagged BPTF (PB = PHD + Bromodomain), sheet Array Heatmap, each array performed twice, total n = 4
How it was run: as §1

CHD5 (PCC) = details: GST-tagged CHD5 (PCC = PHD + Dual Chromodomain), sheet Array Heatmap, each array performed twice, total n = 4
How it was run: as §1

CHD5 (PPCC) = details: GST-tagged CHD5 (PPCC = Dual PHD + Dual Chromodomain), sheet Array Heatmap, each array performed twice, total n = 4
How it was run: as §1

DIDO1 = details: GST-tagged DIDO1, sheet Array Heatmap, each array performed twice, total n = 4
How it was run: as §1

DPF2 (PPC2W2) = details: GST-tagged DPF2 (PPC2W2 = Dual PHD + C2W2-type Zn-finger), sheet Array Heatmap, each array performed twice, total n = 4
How it was run: as §1

ING1 = details: GST-tagged ING1, sheet Array Heatmap, each array performed twice, total n = 4
How it was run: as §1

ING2 = details: GST-tagged ING2, sheet Array Heatmap, each array performed twice, total n = 4
How it was run: as §1

ING3 = details: GST-tagged ING3, sheet Array Heatmap, each array performed twice, total n = 4
How it was run: as §1

ING4 = details: GST-tagged ING4, sheet Array Heatmap, each array performed twice, total n = 4
How it was run: as §1

ING5 = details: GST-tagged ING5, sheet Array Heatmap, each array performed twice, total n = 4
How it was run: as §1

KDM5A (1) = details: GST-tagged KDM5A (1), sheet Array Heatmap, each array performed twice, total n = 4
How it was run: as §1

KDM5A (3) = details: GST-tagged KDM5A (3), sheet Array Heatmap, each array performed twice, total n = 4
How it was run: as §1

KDM5B (1) = details: GST-tagged KDM5B (1), sheet Array Heatmap, each array performed twice, total n = 4
How it was run: as §1

KDM5B (3) = details: GST-tagged KDM5B (3), sheet Array Heatmap, each array performed twice, total n = 4
How it was run: as §1

KDM7A = details: GST-tagged KDM7A, sheet Array Heatmap, each array performed twice, total n = 4
How it was run: as §1

MLL5 = details: GST-tagged MLL5, sheet Array Heatmap, each array performed twice, total n = 4
How it was run: as §1

MORC3 (CW) = details: GST-tagged MORC3 (CW = CW-type Zn-finger), sheet Array Heatmap, each array performed twice, total n = 4
How it was run: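 GST-PHD reader, 0.5 μM, probed on 293-peptide histone array (single/combinatorial PTMs); optimized array protocol; signal = mean ± SD, n = 4.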

PHF13 = details: GST-tagged PHF13, sheet Array Heatmap, each array performed twice, total n = 4
How it was run: as §1

PHF21A = details: GST-tagged PHF21A, sheet Array Heatmap, each array performed twice, total n = 4
How it was run: as §1

PHF2 = details: GST-tagged PHF2, sheet Array Heatmap, each array performed twice, total n = 4
How it was run: as §1

PHF8 = details: GST-tagged PHF8, sheet Array Heatmap, each array performed twice, total n = 4
How it was run: as §1

PHRF1 (RP) = details: GST-tagged PHRF1 (RP), sheet Array Heatmap, each array performed twice, total n = 4
How it was run: as §1

RAG2 = details: GST-tagged RAG2, sheet Array Heatmap, each array performed twice, total n = 4
How it was run: as §1

SP140L = details: GST-tagged SP140L, sheet Array Heatmap, each array performed twice, total n = 4
How it was run: as §1

TAF3 = details: GST-tagged TAF3, sheet Array Heatmap, each array performed twice, total n = 4
How it was run: as §1

Substance: H3K9ac: H3 1-20 [Peptide H3K9ac]
- Array Heatmap signal (histone peptide microarray) (AIRE (PP); listed as 2): 0.4059
- Array Heatmap signal (histone peptide microarray) (AIRE (PP); listed as 3): 0.3893
- Array Heatmap signal (histone peptide microarray) (BAZ2B; listed as 2): 0.4731
- Array Heatmap signal (histone peptide microarray) (BAZ2B; listed as 3): 0.4634
- Array Heatmap signal (histone peptide microarray) (BPTF (PB); listed as 2): 0.3339
- Array Heatmap signal (histone peptide microarray) (BPTF (PB); listed as 3): 0.3268
- Array Heatmap signal (histone peptide microarray) (CHD5 (PCC); listed as 2): 0.8342
- Array Heatmap signal (histone peptide microarray) (CHD5 (PCC); listed as 3): 0.7526
- Array Heatmap signal (histone peptide microarray) (CHD5 (PPCC); listed as 2): 0.5875
- Array Heatmap signal (histone peptide microarray) (CHD5 (PPCC); listed as 3): 0.5535
- Array Heatmap signal (histone peptide microarray) (DIDO1; listed as 2): 0.6642
- Array Heatmap signal (histone peptide microarray) (DIDO1; listed as 3): 0.7409
- Array Heatmap signal (histone peptide microarray) (DPF2 (PPC2W2); listed as 2): 0.7428
- Array Heatmap signal (histone peptide microarray) (DPF2 (PPC2W2); listed as 3): 0.7589
- Array Heatmap signal (histone peptide microarray) (ING1; listed as 2): 0.5257
- Array Heatmap signal (histone peptide microarray) (ING1; listed as 3): 0.5645
- Array Heatmap signal (histone peptide microarray) (ING2; listed as 2): 0.6059
- Array Heatmap signal (histone peptide microarray) (ING2; listed as 3): 0.6036
- Array Heatmap signal (histone peptide microarray) (ING3; listed as 2): 0.4489
- Array Heatmap signal (histone peptide microarray) (ING3; listed as 3): 0.4338
- Array Heatmap signal (histone peptide microarray) (ING4; listed as 2): 0.4346
- Array Heatmap signal (histone peptide microarray) (ING4; listed as 3): 0.4319
- Array Heatmap signal (histone peptide microarray) (ING5; listed as 2): 0.3289
- Array Heatmap signal (histone peptide microarray) (ING5; listed as 3): 0.3311
- Array Heatmap signal (histone peptide microarray) (KDM5A (1); listed as 2): 0.4743
- Array Heatmap signal (histone peptide microarray) (KDM5A (1); listed as 3): 0.4479
- Array Heatmap signal (histone peptide microarray) (KDM5A (3); listed as 2): 0.6003
- Array Heatmap signal (histone peptide microarray) (KDM5A (3); listed as 3): 0.6283
- Array Heatmap signal (histone peptide microarray) (KDM5B (1); listed as 2): 0.6899
- Array Heatmap signal (histone peptide microarray) (KDM5B (1); listed as 3): 0.6761
- Array Heatmap signal (histone peptide microarray) (KDM5B (3); listed as 2): 0.5795
- Array Heatmap signal (histone peptide microarray) (KDM5B (3); listed as 3): 0.5654
- Array Heatmap signal (histone peptide microarray) (KDM7A; listed as 2): 0.303
- Array Heatmap signal (histone peptide microarray) (KDM7A; listed as 3): 0.3051
- Array Heatmap signal (histone peptide microarray) (MLL5; listed as 2): 0.5361
- Array Heatmap signal (histone peptide microarray) (MLL5; listed as 3): 0.5261
- Array Heatmap signal (histone peptide microarray) (MORC3 (CW); listed as 2): 0.5166
- Array Heatmap signal (histone peptide microarray) (MORC3 (CW); listed as 3): 0.5177
- Array Heatmap signal (histone peptide microarray) (PHF13; listed as 2): 0.5811
- Array Heatmap signal (histone peptide microarray) (PHF13; listed as 3): 0.5738
- Array Heatmap signal (histone peptide microarray) (PHF21A; listed as 2): 0.4621
- Array Heatmap signal (histone peptide microarray) (PHF21A; listed as 3): 0.47
- Array Heatmap signal (histone peptide microarray) (PHF2; listed as 2): 0.6188
- Array Heatmap signal (histone peptide microarray) (PHF2; listed as 3): 0.5837
- Array Heatmap signal (histone peptide microarray) (PHF8; listed as 2): 0.3437
- Array Heatmap signal (histone peptide microarray) (PHF8; listed as 3): 0.3517
- Array Heatmap signal (histone peptide microarray) (PHRF1 (RP); listed as 2): 0.9096
- Array Heatmap signal (histone peptide microarray) (PHRF1 (RP); listed as 3): 0.8949
- Array Heatmap signal (histone peptide microarray) (RAG2; listed as 2): 0.3184
- Array Heatmap signal (histone peptide microarray) (RAG2; listed as 3): 0.2998
- Array Heatmap signal (histone peptide microarray) (SP140L; listed as 2): 0.3674
- Array Heatmap signal (histone peptide microarray) (SP140L; listed as 3): 0.3745
- Array Heatmap signal (histone peptide microarray) (TAF3; listed as 2): 0.3565
- Array Heatmap signal (histone peptide microarray) (TAF3; listed as 3): 0.3052
